Reference: patent publication EP4603105A1, “PHARMACEUTICAL COMPOSITION CONTAINING CYCLIC COMPOUND HAVING SELECTIVE KRAS INHIBITORY EFFECT AGAINST HRAS AND NRAS” (CHUGAI SEIYAKU KABUSHIKI KAISHA, priority 2022, dated 2024)
Where a SMILES comes first, the peptide text is derived from it. Bridges are numbered along the chain shown (N, C = ends). [ ]: non-standard residue; d: D form. The star is where a group is joined. hPhe(3-Cl-4-CF3) = N[C@@H](CCc1ccc(C(F)(F)F)c(Cl)c1)C(=O)O; NPrPhe(4-CF3) = CCCN[C@@H](Cc1ccc(C(F)(F)F)cc1)C(=O)O; NMeGly(cPent) = CN[C@H](C(=O)O)C1CCCC1; Hyp = O=C(O)[C@@H]1C[C@@H](O)CN1; NMeD = CN[C@@H](CC(=O)O)C(=O)O; NMeL = CN[C@@H](CC(C)C)C(=O)O; Morpholide = C1CN(*)CCO1; Ac5c = NC1(C(=O)O)CCCC1; Aze = O=C(O)[C@@H]1CCN1; Ac4c = NC1(C(=O)O)CCC1; Sar = CNCC(=O)O

Tests used:
[1] = target: GDP-bound NRAS wild-type protein (Homo sapiens, UniProt P01111); assay: Binding to NRAS by surface plasmon resonance (SPR), KD and KD ratio to KRAS
Outline: (§1)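 Measured at 30°C: SPR with GDP-loaded, E. coli-expressed biotin-Avi RAS captured (~100–300 RU), ascending 75 s compound injections, HBS pH 7.4 with GDP, MgCl2, 4% DMSO. KD from 1:1 fit.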

[2] = system: human lung cancer strain NCI-H441; type: cell-based
Outline: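 Signal came from […] measured per well once the reagent was added. Beforehand, cells were cultured at 37°C and 5% carbon dioxide on a compound series serially diluted in dimethyl sulfoxide.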

[3] = target: HRAS wild-type protein (Homo sapiens, UniProt P01112); assay: Binding to HRAS by surface plasmon resonance (SPR), KD and KD ratio to KRAS
Outline: as §1

[4] = ratio of KD for GDP-bound NRAS wild-type protein to KD for KRAS
[5] = ratio of KD for HRAS wild-type protein to KD for KRAS
[6] = ratio of the KD value with respect to GDP-bound NRAS wild-type protein to the KD value with respect to KRAS
[7] = ratio of the KD value with respect to HRAS wild-type protein to the KD value with respect to KRAS
[8] = ratio of KD value for GDP-bound NRAS wild-type protein to KD value for KRAS (SPR)
[9] = ratio of KD value for HRAS wild-type protein to KD value for KRAS (SPR)

GDP-bound NRAS wild-type protein, sequence (P01111 whole entry): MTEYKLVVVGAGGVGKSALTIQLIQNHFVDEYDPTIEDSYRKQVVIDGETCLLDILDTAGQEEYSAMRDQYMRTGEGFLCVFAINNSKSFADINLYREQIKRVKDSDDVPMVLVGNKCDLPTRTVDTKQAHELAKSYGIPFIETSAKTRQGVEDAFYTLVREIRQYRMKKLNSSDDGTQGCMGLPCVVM
HRAS wild-type protein, sequence (P01112 whole entry): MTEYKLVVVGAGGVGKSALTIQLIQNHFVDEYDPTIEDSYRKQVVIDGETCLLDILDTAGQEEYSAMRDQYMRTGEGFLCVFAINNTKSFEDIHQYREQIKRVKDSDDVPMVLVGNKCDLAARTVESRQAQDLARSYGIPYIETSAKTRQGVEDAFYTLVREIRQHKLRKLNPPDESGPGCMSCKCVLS

Row | SMILES | IC50 [2] [nM] | NRAS /KRAS [1, 4] | HRAS /KRAS [3, 5] | NRAS /KRAS [1, 6] | HRAS /KRAS [3, 7] | NRAS /KRAS [1, 8] | HRAS /KRAS [3, 9]
1 | CCC[C@H]1C(=O)N[C@@H]([C@@H](C)CC)C(=O)N(C)CC(=O)N(C)[C@H]2C/C=C\CCN(C2=O)[C@@H](Cc2ccc(C(F)(F)F)cc2)C(=O)N(C)CC(=O)N[C@@H](CCc2ccc(C(F)(F)F)c(Cl)c2)C(=O)N2CCOC[C@H]2C(=O)NC2(CC(C)(C)C2)C(=O)N(C)[C@@H](C(CC)CC)C(=O)N(C)[C@H](C(=O)N(C)C)CC(=O)N1C [PP2929] | 90.3 | AA (a compound having 20 or more is denoted as AA) | A (a compound having 10 or more and less than 20 is denoted as A) | – | – | – | –
2 | CCCN1C(=O)CN(C)C(=O)CN(C)C(=O)[C@H]([C@@H](C)CC)NC(=O)[C@@H]2CCCCCOc3ccc(cc3)C[C@H]1C(=O)N(C)CC(=O)N[C@@H](CCc1cc(F)c(C(F)(F)F)c(F)c1)C(=O)N1C[C@H](OCC)C[C@H]1C(=O)NC1(CCCC1)C(=O)N(C)[C@@H](C1CCCC1)C(=O)N(C)[C@H](C(=O)N(C)C)CC(=O)N2C [PP0895] | 2.2 | C (A compound having a KD ratio of 0.1 or more and less than 3 is denoted as C) | C (A compound having a KD ratio of 0.1 or more and less than 3 is denoted as C) | – | – | – | –
3 | CCCOC[C@H]1C(=O)N[C@@H]([C@@H](C)CC)C(=O)N(C)CC(=O)N(C)[C@H]2C/C=C\CCN(C2=O)[C@@H](CC2CCC(F)(F)CC2)C(=O)N(C)CC(=O)N[C@@H](CCc2ccc(C(F)(F)F)c(OC)c2)C(=O)N2C[C@H](OCC)C[C@H]2C(=O)N(C)C2(CCC2)C(=O)N(C)[C@@H](C2CCCC2)C(=O)N(C)[C@H](C(=O)N(C)C)CC(=O)N1C [PP2350] | 60.3 | – | – | A (a compound having 10 or more and less than 20 is denoted as A) | A (a compound having 10 or more and less than 20 is denoted as A) | – | –
4 | CC[C@H](C)[C@@H]1NC(=O)[C@H](CC)N(C)C(=O)C[C@@H](C(=O)N(C)CC)N(C)C(=O)[C@H](C2CCCC2)N(C)C(=O)C2(CC(C)(C)C2)NC(=O)[C@@H]2C[C@@H](C)CN2C(=O)[C@H](CCc2ccc(C(F)(F)F)c(Cl)c2)NC(=O)CN(C)C(=O)[C@H](Cc2ccc(C)cc2)N2CC/C=C\C[C@@H](C2=O)N(C)C(=O)CN(C)C1=O [PP1876] | 23 | – | – | – | – | A (a compound having 10 or more and less than 20 is denoted as A) | A (a compound having 10 or more and less than 20 is denoted as A)
5 | CCO[C@@H]1C[C@H]2C(=O)NC3(CC(C)(C)C3)C(=O)N(C)[C@@H](CC3CCC3)C(=O)N(C)[C@H](C(=O)N(C)C)CC(=O)N(C)[C@@H](COC)C(=O)N[C@@H]([C@@H](C)CC)C(=O)N(C3CC3)CC(=O)N(C)[C@H]3C/C=C\CCN(C3=O)[C@@H](Cc3ccc(C(F)(F)F)cc3)C(=O)N(C)CC(=O)N[C@@H](CCc3ccc(C(F)(F)F)c(OC)c3)C(=O)N2C1 [PP2771] | 148 | AA (a compound having 20 or more is denoted as AA) | A (a compound having 10 or more and less than 20 is denoted as A) | – | – | – | –
6 | CCC[C@H]1C(=O)N[C@@H]([C@@H](C)CC)C(=O)N(C)CC(=O)N(C)[C@H]2C/C=C\CCN(C2=O)[C@@H](Cc2ccc(C)cc2)C(=O)N(C)CC(=O)N[C@@H](CCc2ccc3c(C)cn(C)c3c2)C(=O)N2C[C@H](OCC)C[C@H]2C(=O)NC2(CC(C)(C)C2)C(=O)N(C)[C@@H](C2CCCC2)C(=O)N(C)[C@H](C(=O)N(C)C)CC(=O)N1C [PP2899] | 18.8 | A (a compound having 10 or more and less than 20 is denoted as A) | B (a compound having 3 or more and less than 10 is denoted as B) | – | – | – | –

Second part, led by results:

Row | IC50 [2] [nM] | SMILES | NRAS /KRAS [1, 4] | HRAS /KRAS [3, 5] | NRAS /KRAS [1, 6] | HRAS /KRAS [3, 7] | NRAS /KRAS [1, 8] | HRAS /KRAS [3, 9]
7 | 46.7 | CCCN1C(=O)[C@@H]2CCN2C(=O)CN(C)C(=O)[C@H]([C@@H](C)CC)NC(=O)[C@H](CC(C)C)N(C)C(=O)C[C@@H](C(=O)N2CCOCC2)NC(=O)[C@H](C2CCCC2)N(C)C(=O)C2(CCCC2)NC(=O)[C@@H]2C[C@@H](OCC)CN2C(=O)[C@H](CCc2ccc(C(F)(F)F)c(Cl)c2)NC(=O)CN(C)C(=O)[C@@H]1Cc1ccc(C(F)(F)F)cc1 [PP0353] ([NMeL]I[Sar][Aze][NPrPhe(4-CF3)][Sar][hPhe(3-Cl-4-CF3)][Hyp](Et)[Ac5c][NMeGly(cPent)]D-Morpholide; lactam N-11) | C (A compound having a KD ratio of 0.1 or more and less than 3 is denoted as C) | B (a compound having 3 or more and less than 10 is denoted as B) | – | – | – | –
8 | 29.6 | CCO[C@@H]1C[C@H]2C(=O)NC3(CCC3)C(=O)N(C)[C@@H](C3CCCC3)C(=O)N(C)[C@H](C(=O)N(C)C)CC(=O)N(C)[C@@H](C)C(=O)N[C@@H]([C@H](C)CC)C(=O)N(C)CC(=O)N(C)[C@H]3CCCCN(C3=O)[C@@H](Cc3ccc(C(F)(F)F)cc3)C(=O)N(C)CC(=O)N[C@@H](CCc3cc(F)c(C(F)(F)F)c(F)c3)C(=O)N2C1 [PP0730] | – | – | C (A compound having a KD ratio of 0.1 or more and less than 3 is denoted as C) | C (A compound having a KD ratio of 0.1 or more and less than 3 is denoted as C) | – | –
9 | 38 | CCCN1C(=O)CN(C)C(=O)[C@H](C)NC(=O)[C@H]([C@@H](C)CC)NC(=O)[C@H](CC(C)C)N(C)C(=O)C[C@@H](C(=O)N2CCOCC2)N(C)C(=O)[C@H](C2CCCC2)N(C)C(=O)C2(CCCC2)NC(=O)[C@@H]2CCCN2C(=O)[C@H](CCc2ccc(C(F)(F)F)c(Cl)c2)NC(=O)CN(C)C(=O)[C@@H]1Cc1ccc(C(F)(F)F)cc1 [PP1971] ([NMeL]IA[Sar][NPrPhe(4-CF3)][Sar][hPhe(3-Cl-4-CF3)]P[Ac5c][NMeGly(cPent)][NMeD]-Morpholide; lactam N-11) | – | – | B (a compound having 3 or more and less than 10 is denoted as B) | B (a compound having 3 or more and less than 10 is denoted as B) | – | –
10 | 22.6 | CC[C@H](C)[C@@H]1NC(=O)[C@H](C2CC2)N(C)C(=O)C[C@@H](C(=O)N(C)C)N(C)C(=O)[C@H](C2CCCC2)N(C)C(=O)C2(CCCC2)N(C)C(=O)[C@@H]2C[C@@H](C)CN2C(=O)[C@H](CCc2cc(F)c(C(F)(F)F)c(F)c2)NC(=O)CN(C)C(=O)[C@H](Cc2ccc(C)cc2)N2CC/C=C\C[C@@H](C2=O)N(C)C(=O)CN(C)C1=O [PP1813] | – | – | – | – | A (a compound having 10 or more and less than 20 is denoted as A) | B (a compound having 3 or more and less than 10 is denoted as B)
11 | 3.1 | CC[C@H](C)[C@@H]1NC(=O)[C@H](CC(C)C)N(C)C(=O)C[C@@H](C(=O)N(C)C)N(C)C(=O)[C@H](C2CCCC2)N(C)C(=O)C2(CCC2)NC(=O)[C@@H]2CCCN2C(=O)[C@H](CCc2cc(F)c(C(F)(F)F)c(F)c2)NC(=O)CN(C)C(=O)[C@H](Cc2ccc(C(F)(F)F)cc2)N2CCCC[C@@H](C2=O)N(C)C(=O)CN(C)C1=O [PP0574] | – | – | C (A compound having a KD ratio of 0.1 or more and less than 3 is denoted as C) | B (a compound having 3 or more and less than 10 is denoted as B) | – | –
12 | 109 | CC[C@H](C)[C@@H]1NC(=O)[C@H](CC(C)C)N(C)C(=O)C[C@@H](C(=O)N2CCCC2)N(C)C(=O)[C@H](C2CCCC2)N(C)C(=O)C2(CCCC2)NC(=O)[C@@H]2CCCN2C(=O)[C@H](CCc2cc(F)c(C(F)(F)F)c(F)c2)NC(=O)CN(C)C(=O)[C@H](Cc2ccc(C(F)(F)F)cc2)N2CCCCC[C@@H](C2=O)N(C)C(=O)CN(C)C1=O [PP0509] | – | – | B (a compound having 3 or more and less than 10 is denoted as B) | B (a compound having 3 or more and less than 10 is denoted as B) | – | –
13 | 22.6 | CC[C@H](C)[C@@H]1NC(=O)[C@H](CC(C)C)N(C)C(=O)C[C@@H](C(=O)N(C)C)N(C)C(=O)[C@H](C2CCCC2)N(C)C(=O)C2(CCC2)NC(=O)[C@@H]2CC(F)(F)CN2C(=O)[C@H](CCc2cc(F)c(C(F)(F)F)c(F)c2)NC(=O)CN(C)C(=O)[C@H](Cc2ccc(C(F)(F)F)cc2)N2CCCCC[C@@H](C2=O)N(C)C(=O)CN(C)C1=O [PP0466] | – | – | B (a compound having 3 or more and less than 10 is denoted as B) | B (a compound having 3 or more and less than 10 is denoted as B) | – | –
14 | 8.4 | CC[C@H](C)[C@@H]1NC(=O)[C@H](CC(C)C)N(C)C(=O)C[C@@H](C(=O)N2CCOCC2)N(C)C(=O)[C@H](C2CCCC2)N(C)C(=O)C2(CCC2)NC(=O)[C@@H]2C[C@@H](C(F)(F)F)CN2C(=O)[C@H](CCc2cc(F)c(C(F)(F)F)c(F)c2)NC(=O)CN(C)C(=O)[C@H](Cc2ccc(C(F)(F)F)cc2)N2CCCC[C@@H](C2=O)N(C)C(=O)CN(C)C1=O [PP0809] | B (a compound having 3 or more and less than 10 is denoted as B) | B (a compound having 3 or more and less than 10 is denoted as B) | – | – | – | –
15 | 3.4 | CCCN1C(=O)[C@@H]2CCN2C(=O)CN(C)C(=O)[C@H]([C@@H](C)CC)NC(=O)[C@H](CC(C)C)N(C)C(=O)C[C@@H](C(=O)N(C)C)N(C)C(=O)[C@H](C2CCCC2)N(C)C(=O)C2(CCC2)NC(=O)[C@@H]2CCCN2C(=O)[C@H](CCc2ccc(C(F)(F)F)c(Cl)c2)NC(=O)CN(C)C(=O)[C@@H]1Cc1ccc(C(F)(F)F)cc1 [PP0441] ([NMeL]I[Sar][Aze][NPrPhe(4-CF3)][Sar][hPhe(3-Cl-4-CF3)]P[Ac4c][NMeGly(cPent)][NMeD]-NMe2; lactam N-11) | – | – | C (A compound having a KD ratio of 0.1 or more and less than 3 is denoted as C) | C (A compound having a KD ratio of 0.1 or more and less than 3 is denoted as C) | – | –
